Data: ChEMBL document CHEMBL1137599, “Discovery of uracil-based histone deacetylase inhibitors able to reduce acquired antifungal resistance and trailing growth in Candida albicans” (Bioorg Med Chem Lett, 2007)
Values after ≈ are worked out from the molar mass of the structure shown.

How the values were obtained:
Histone deacetylase HD2 = target: T1, Histone deacetylase HD2 (Zea mays, UniProt Q94F81); assay: Inhibition of maize HD2 (mean)
T1 sequence (Q94F81 whole entry): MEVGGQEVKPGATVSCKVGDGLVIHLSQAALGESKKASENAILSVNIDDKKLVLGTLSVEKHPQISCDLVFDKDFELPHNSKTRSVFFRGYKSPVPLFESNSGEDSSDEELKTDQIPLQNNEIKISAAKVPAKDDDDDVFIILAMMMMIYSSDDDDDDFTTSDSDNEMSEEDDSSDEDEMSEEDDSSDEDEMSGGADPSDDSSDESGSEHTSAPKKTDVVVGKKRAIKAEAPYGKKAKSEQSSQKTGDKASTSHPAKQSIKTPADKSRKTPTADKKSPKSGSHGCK

Histone deacetylase HD1B = Histone deacetylase HD1B (Zea mays, UniProt Q9ZTP8); assay: Inhibition of maize HD1-B (mean)
Candida albicans [1] = assay: Effect of compound on Candida albicans sensitivity to Fluconazole: Minimum inhibitory concentration required to inhibit the growth of 50% of isolates after 24h.; format: functional
Candida albicans [2] = assay: Effect of compound on Candida albicans sensitivity to Fluconazole: Minimum inhibitory concentration required to inhibit the growth of 90% of isolates after 48h.; format: functional
Candida albicans [3] = assay: Effect of compound on Candida albicans sensitivity to Fluconazole: Minimum inhibitory concentration required to inhibit the growth of 90% of isolates after 24h.; format: functional
Candida albicans [4] = assay: microbe, parasite or virus in culture; format: functional; details: 48 h
Description: Effect of compound on Candida albicans sensitivity to Fluconazole: Minimum inhibitory concentration required to inhibit the growth of 50% of isolates after 48h.

[5] = target: Histone deacetylase HD1-A (Zea mays); assay: Inhibition of maize HD1-A (mean)
Histone deacetylase 1 = Histone deacetylase 1 (Mus musculus, UniProt O09106); assay: Inhibition of mouse HDAC1 (mean)
Sequence of Histone deacetylase 1 (O09106 whole entry): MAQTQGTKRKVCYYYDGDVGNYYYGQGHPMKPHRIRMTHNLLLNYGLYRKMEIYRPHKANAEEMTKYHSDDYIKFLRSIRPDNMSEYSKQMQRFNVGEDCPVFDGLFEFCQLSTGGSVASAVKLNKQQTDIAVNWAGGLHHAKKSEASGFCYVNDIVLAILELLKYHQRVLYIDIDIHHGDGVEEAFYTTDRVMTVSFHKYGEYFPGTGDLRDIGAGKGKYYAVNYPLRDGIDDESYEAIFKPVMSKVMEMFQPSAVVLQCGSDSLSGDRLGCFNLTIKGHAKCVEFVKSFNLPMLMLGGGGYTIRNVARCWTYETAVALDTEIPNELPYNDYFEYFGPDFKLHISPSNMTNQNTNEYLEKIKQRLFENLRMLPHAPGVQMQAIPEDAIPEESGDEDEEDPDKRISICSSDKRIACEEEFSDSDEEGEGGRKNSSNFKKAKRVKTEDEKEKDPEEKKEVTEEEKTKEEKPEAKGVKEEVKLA

Sequence of Histone deacetylase HD1B (Q9ZTP8 whole entry): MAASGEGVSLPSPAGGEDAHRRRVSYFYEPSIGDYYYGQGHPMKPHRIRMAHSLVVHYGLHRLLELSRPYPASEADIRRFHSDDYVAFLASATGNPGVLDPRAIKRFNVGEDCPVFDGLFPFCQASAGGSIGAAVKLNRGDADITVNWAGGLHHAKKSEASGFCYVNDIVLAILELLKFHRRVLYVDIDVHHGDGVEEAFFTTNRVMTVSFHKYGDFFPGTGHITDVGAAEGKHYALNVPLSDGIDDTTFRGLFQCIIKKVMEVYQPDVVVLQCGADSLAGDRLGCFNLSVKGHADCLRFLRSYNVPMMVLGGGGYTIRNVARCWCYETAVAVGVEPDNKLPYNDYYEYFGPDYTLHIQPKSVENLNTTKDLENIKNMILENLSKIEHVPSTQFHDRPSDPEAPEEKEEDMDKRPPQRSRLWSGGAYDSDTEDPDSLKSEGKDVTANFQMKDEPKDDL

| Structure (SMILES) | IC50 (Histone deacetylase HD2) | IC50 (Histone deacetylase HD1B) | MIC50 (Candida albicans [1]) | MIC90 (Candida albicans [2]) | MIC90 (Candida albicans [3]) | MIC50 (Candida albicans [4]) | IC50 [5] | IC50 (Histone deacetylase 1) |
| --- | --- | --- | --- | --- | --- | --- | --- | --- |
| O=C(CCCCCCC(=O)Nc1ccccc1)NO [VORINOSTAT] | 0.013 µg/mL (≈ 0.0492 µM) | 0.007 µg/mL (≈ 0.0265 µM) | – | – | – | – | – | – |
| O=C(CCCCCSc1nc(Cc2ccccc2)cc(=O)[nH]1)NO | – | – | 0.5 µg/mL (≈ 1.44 µM) | 12 µg/mL (≈ 34.5 µM) | 4 µg/mL (≈ 11.5 µM) | 0.625 µg/mL (≈ 1.8 µM) | – | – |
| O=C(CCCCSc1nc(-c2ccc(Cl)cc2)cc(=O)[nH]1)NO | 0.006 µg/mL (≈ 0.017 µM) | 0.004 µg/mL (≈ 0.0113 µM) | 0.5 µg/mL (≈ 1.41 µM) | 16 µg/mL (≈ 45.2 µM) | 2 µg/mL (≈ 5.65 µM) | 1 µg/mL (≈ 2.83 µM) | 0.001 µg/mL (≈ 0.00283 µM) | 0.018 µg/mL (≈ 0.0509 µM) |
| O=C(CCCCSc1nc(-c2ccccc2)cc(=O)[nH]1)NO | – | – | 0.5 µg/mL (≈ 1.57 µM) | 12 µg/mL (≈ 37.6 µM) | 4 µg/mL (≈ 12.5 µM) | 0.5 µg/mL (≈ 1.57 µM) | – | – |
| O=C(CCCCSc1nc(-c2cccc(Cl)c2)cc(=O)[nH]1)NO | 0.006 µg/mL (≈ 0.017 µM) | 0.004 µg/mL (≈ 0.0113 µM) | 0.44 µg/mL (≈ 1.24 µM) | 8 µg/mL (≈ 22.6 µM) | 3.42 µg/mL (≈ 9.67 µM) | 1 µg/mL (≈ 2.83 µM) | – | 0.013 µg/mL (≈ 0.0367 µM) |
| OC(Cn1cncn1)(Cn1cncn1)c1ccc(F)cc1F [FLUCONAZOLE] | – | – | 1.45 µg/mL (≈ 4.73 µM) | 11 µg/mL (≈ 35.9 µM) | 3.6 µg/mL (≈ 11.8 µM) | 2.5 µg/mL (≈ 8.16 µM) | – | – |
